Data as given in US20120302609A1, “Pyrazolines for the Modulation of PKM2” (Dynamix Pharmaceuticals LTD., priority 2011, published 2012).

Tests used:
[1] = test system: 786-O (kidney); assay: Cell proliferation assay (CellTiter-Glo Luminescent); assay type: cell-based; details: Homo sapiens, 786-0, 1 mM glucose, 96 hr
[2] = test system: BT-474 (Breast); assay: as above; assay type: cell-based; details: Homo sapiens, Complete media, 96 hr
[3] = test system: H1299 cells; assay: Cell cycle analysis; assay type: cell-based, human; details: 48 hours, FIG. 6

COc1ccc([C@@H]2CC(c3ccc(NS(=O)(=O)c4ccc(F)cc4)cc3)=NN2C(C)=O)cc1 [Compound 13A, (S)—N-(4-(1-acetyl-5-(4-methoxyphenyl)-4,5-dihydro-1H-pyrazol-3-yl)phenyl)-4-fluorobenzenesulfonamide]
AC50 [1]: < 3 µM
AC50 [2]: 10 to 20 µM
cell cycle analysis [3]: most cells were arrested at the G1/S phase
